Measurements: ChEMBL document CHEMBL4052689, “Discovery and optimization of 3-(4-aryl/heteroarylsulfonyl)piperazin-1-yl)-6-(piperidin-1-yl)pyridazines as novel, CNS penetrant pan-muscarinic antagonists” (Bioorg Med Chem Lett, 2017)
Blank lines part the entries; values can stand above or below the compound they belong to. Activity calls are given as the source filed them. No cut-off for these calls is given here.

Key:
[1] = target: Muscarinic acetylcholine receptor M2 (Homo sapiens) (UniProt P08172); assay: Antagonist activity at human recombinant muscarinic M2 receptor expressed in CHO cells co-transfected with Gqi5 assessed as acetylcholine-induced response in presence of EC80 acetylcholine by calcium mobilization assay relative to untreated control; format: functional, cell-based; set-up: scale not given: the % may be the effect or the level left
Chain of Muscarinic acetylcholine receptor M2 (Homo sapiens) (P08172 whole entry): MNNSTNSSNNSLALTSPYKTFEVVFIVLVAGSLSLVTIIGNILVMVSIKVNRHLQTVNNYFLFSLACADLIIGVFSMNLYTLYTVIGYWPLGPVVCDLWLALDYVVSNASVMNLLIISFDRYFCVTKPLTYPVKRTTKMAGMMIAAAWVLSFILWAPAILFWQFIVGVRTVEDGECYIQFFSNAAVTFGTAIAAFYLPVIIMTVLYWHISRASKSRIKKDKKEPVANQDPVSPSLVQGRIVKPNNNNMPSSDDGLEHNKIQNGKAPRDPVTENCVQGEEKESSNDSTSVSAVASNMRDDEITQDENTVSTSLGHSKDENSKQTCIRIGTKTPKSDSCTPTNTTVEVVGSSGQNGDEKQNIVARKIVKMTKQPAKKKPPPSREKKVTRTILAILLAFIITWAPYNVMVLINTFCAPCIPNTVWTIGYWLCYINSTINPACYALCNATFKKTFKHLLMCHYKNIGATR

[2] = target: Muscarinic acetylcholine receptor M5 (Homo sapiens, UniProt P08912); assay: Antagonist activity at human recombinant muscarinic M5 receptor expressed in CHO cells co-transfected with Gqi5 in presence of EC80 acetylcholine by calcium mobilization assay; format: functional, cell-based
[3] = target: Muscarinic acetylcholine receptor M4 (Rattus norvegicus, UniProt P08485); assay: (§1) Antagonist activity at rat muscarinic M4 receptor by calcium mobilization assay; format: functional
[4] = target: Muscarinic acetylcholine receptor M1 (Rattus norvegicus, UniProt P08482); assay: (§2) Antagonist activity at rat muscarinic M1 receptor by calcium mobilization assay; format: functional
[5] = target: Muscarinic acetylcholine receptor M1 (Rattus norvegicus) (UniProt P08482); assay: Antagonist activity at rat muscarinic M1 receptor assessed as acetylcholine-induced response by calcium mobilization assay; format: functional; set-up: scale not given: the % may be the effect or the level left
Chain of Muscarinic acetylcholine receptor M1 (Rattus norvegicus) (P08482 whole entry): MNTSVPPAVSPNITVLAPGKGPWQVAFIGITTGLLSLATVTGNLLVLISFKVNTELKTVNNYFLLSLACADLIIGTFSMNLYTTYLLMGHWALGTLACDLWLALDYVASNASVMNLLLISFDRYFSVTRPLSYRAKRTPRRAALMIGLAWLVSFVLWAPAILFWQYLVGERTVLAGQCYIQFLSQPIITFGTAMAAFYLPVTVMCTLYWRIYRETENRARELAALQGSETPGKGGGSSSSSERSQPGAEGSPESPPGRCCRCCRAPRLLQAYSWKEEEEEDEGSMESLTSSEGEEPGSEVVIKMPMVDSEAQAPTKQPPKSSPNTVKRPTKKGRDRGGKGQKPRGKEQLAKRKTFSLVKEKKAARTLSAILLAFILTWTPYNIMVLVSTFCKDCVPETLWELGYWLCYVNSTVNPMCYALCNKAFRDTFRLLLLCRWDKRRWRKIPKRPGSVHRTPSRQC

[6] = target: Muscarinic acetylcholine receptor M2 and M4 (Homo sapiens) (UniProt P08173+P08172); assay: Selectivity index, ratio of IC50 for human recombinant muscarinic M2 receptor to IC50 for human recombinant muscarinic M4 receptor
[7] = target: Muscarinic acetylcholine receptor M2 (Rattus norvegicus, UniProt P10980); assay: (§3) Antagonist activity at rat muscarinic M2 receptor by calcium mobilization assay; format: functional
[8] = target: Muscarinic acetylcholine receptor M3 (Rattus norvegicus) (UniProt P08483); assay: Antagonist activity at rat muscarinic M3 receptor assessed as acetylcholine-induced response by calcium mobilization assay; format: functional; set-up: scale not given: the % may be the effect or the level left
Chain of Muscarinic acetylcholine receptor M3 (Rattus norvegicus) (P08483 whole entry, looked up): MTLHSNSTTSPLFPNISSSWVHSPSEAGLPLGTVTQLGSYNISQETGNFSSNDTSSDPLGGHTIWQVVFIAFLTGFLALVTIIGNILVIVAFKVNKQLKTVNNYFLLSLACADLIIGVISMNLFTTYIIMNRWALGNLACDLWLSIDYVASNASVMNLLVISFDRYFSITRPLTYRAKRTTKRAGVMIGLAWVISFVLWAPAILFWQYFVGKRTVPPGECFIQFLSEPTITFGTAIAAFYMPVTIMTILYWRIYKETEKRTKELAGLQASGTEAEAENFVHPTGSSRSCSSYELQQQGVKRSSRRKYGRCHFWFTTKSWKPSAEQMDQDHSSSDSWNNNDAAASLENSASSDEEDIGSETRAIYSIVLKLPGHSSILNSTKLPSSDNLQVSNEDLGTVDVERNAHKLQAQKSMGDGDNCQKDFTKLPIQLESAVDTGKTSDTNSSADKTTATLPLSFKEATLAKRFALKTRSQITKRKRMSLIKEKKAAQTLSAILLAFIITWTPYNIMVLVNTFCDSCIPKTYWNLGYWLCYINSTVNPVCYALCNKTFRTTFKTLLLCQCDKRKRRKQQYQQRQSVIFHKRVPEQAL

[9] = target: Muscarinic acetylcholine receptor M5 (Rattus norvegicus, UniProt P08911); assay: Antagonist activity at rat muscarinic M5 receptor by calcium mobilization assay; format: functional
[10] = target: Muscarinic acetylcholine receptor M3 (Rattus norvegicus, UniProt P08483); assay: (§4) Antagonist activity at rat muscarinic M3 receptor by calcium mobilization assay; format: functional
[11] = target: T1, Muscarinic acetylcholine receptor M3 (Homo sapiens, UniProt P20309); assay: Antagonist activity at human recombinant muscarinic M3 receptor expressed in CHO cells co-transfected with Gqi5 in presence of EC80 acetylcholine by calcium mobilization assay; format: functional, cell-based
Target sequence in this assay (P20309 whole entry): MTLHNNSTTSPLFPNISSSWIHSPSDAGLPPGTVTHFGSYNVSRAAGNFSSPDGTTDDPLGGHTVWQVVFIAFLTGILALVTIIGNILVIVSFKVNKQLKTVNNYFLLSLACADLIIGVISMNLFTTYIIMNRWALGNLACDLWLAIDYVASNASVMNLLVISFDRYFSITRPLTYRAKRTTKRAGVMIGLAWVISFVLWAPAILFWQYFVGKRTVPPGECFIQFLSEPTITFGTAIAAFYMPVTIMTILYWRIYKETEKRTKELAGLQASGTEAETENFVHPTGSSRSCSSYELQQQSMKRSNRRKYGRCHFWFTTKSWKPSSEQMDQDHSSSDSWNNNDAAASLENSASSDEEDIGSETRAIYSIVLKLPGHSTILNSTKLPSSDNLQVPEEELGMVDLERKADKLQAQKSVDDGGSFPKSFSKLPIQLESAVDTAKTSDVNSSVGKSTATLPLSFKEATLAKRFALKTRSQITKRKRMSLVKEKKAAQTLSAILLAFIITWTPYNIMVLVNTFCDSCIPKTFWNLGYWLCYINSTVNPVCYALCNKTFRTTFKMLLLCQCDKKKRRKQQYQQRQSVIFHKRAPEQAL

Liver [12] = assay: Drug metabolism in human liver microsomes assessed as metabolite C formation in presence of NADPH by UV and mass spectrometry; format: ADME, microsome
Homo sapiens [13] = species: Homo sapiens; assay: Selectivity index, ratio of IC50 for human recombinant muscarinic M3 receptor to IC50 for human recombinant muscarinic M4 receptor
[14] = target: Muscarinic acetylcholine receptor M5 (Rattus norvegicus) (UniProt P08911); assay: Antagonist activity at rat muscarinic M5 receptor assessed as acetylcholine-induced response by calcium mobilization assay; format: functional; set-up: Activity: scale not given: the % may be the effect or the level left
Chain of Muscarinic acetylcholine receptor M5 (Rattus norvegicus) (P08911 whole entry): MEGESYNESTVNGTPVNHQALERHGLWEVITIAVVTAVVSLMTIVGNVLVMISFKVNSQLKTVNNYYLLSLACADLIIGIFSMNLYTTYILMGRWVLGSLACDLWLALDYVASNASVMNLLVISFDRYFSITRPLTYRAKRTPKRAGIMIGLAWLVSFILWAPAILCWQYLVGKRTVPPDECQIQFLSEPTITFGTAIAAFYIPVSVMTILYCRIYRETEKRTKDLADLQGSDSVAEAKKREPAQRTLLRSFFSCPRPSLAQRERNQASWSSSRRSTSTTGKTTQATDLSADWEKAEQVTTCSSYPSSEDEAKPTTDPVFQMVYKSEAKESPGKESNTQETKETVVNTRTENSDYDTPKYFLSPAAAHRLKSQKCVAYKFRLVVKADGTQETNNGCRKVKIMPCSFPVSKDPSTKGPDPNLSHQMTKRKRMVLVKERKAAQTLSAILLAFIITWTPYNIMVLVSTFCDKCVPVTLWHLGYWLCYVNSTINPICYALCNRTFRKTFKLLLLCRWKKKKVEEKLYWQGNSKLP

Liver [15] = assay: Drug metabolism in rat liver microsomes in absence of NADPH by UV and mass spectrometry; format: ADME, microsome
[16] = target: Muscarinic acetylcholine receptor M4 (Rattus norvegicus) (UniProt P08485); assay: Antagonist activity at rat muscarinic M4 receptor assessed as acetylcholine-induced response by calcium mobilization assay; format: functional; set-up: scale not given: the % may be the effect or the level left
Chain of Muscarinic acetylcholine receptor M4 (Rattus norvegicus) (P08485 whole entry): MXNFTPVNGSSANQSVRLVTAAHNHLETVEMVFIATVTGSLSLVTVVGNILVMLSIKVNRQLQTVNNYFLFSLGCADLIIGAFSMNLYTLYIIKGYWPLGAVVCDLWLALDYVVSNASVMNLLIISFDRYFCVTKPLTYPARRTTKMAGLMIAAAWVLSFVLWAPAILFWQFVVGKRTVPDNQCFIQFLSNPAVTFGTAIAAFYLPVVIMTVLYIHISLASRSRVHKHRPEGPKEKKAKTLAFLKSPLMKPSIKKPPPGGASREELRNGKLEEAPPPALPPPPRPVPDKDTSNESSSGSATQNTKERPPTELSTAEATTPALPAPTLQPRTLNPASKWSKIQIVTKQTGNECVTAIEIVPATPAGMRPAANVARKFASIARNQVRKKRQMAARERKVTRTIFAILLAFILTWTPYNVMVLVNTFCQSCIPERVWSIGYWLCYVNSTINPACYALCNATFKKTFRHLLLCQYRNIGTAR

Liver [17] = assay: Drug metabolism in human liver microsomes assessed as metabolite E formation in presence of NADPH by UV and mass spectrometry; format: ADME, microsome
Liver [18] = assay: Drug metabolism in human liver microsomes in absence of NADPH by UV and mass spectrometry; format: ADME, microsome
Liver [19] = assay: Drug metabolism in human liver microsomes assessed as metabolite H formation in presence of NADPH by UV and mass spectrometry; format: ADME, microsome
Plasma [20] = assay: Protein binding in rat plasma; format: ADME, cell-free
[21] = target: Muscarinic acetylcholine receptor M2 (Homo sapiens, UniProt P08172); assay: Antagonist activity at human recombinant muscarinic M2 receptor expressed in CHO cells co-transfected with Gqi5 in presence of EC80 acetylcholine by calcium mobilization assay; format: functional, cell-based
Chain of Muscarinic acetylcholine receptor M2 (Homo sapiens, UniProt P08172) (P08172 whole entry): as the sequence (P08172 whole entry) above

Homo sapiens [22] = species: Homo sapiens; assay: Selectivity index, ratio of IC50 for human recombinant muscarinic M1 receptor to IC50 for human recombinant muscarinic M4 receptor
Homo sapiens [23] = species: Homo sapiens; assay: Selectivity index, ratio of IC50 for human recombinant muscarinic M5 receptor to IC50 for human recombinant muscarinic M4 receptor
[24] = target: T2, Muscarinic acetylcholine receptor M4 (Homo sapiens) (UniProt P08173); assay: Antagonist activity at human recombinant muscarinic M4 receptor expressed in CHO cells co-transfected with Gqi5 assessed as acetylcholine-induced response in presence of EC80 acetylcholine by calcium mobilization assay relative to untreated control; format: functional, cell-based; set-up: scale not given: the % may be the effect or the level left
T2 sequence (whole entry): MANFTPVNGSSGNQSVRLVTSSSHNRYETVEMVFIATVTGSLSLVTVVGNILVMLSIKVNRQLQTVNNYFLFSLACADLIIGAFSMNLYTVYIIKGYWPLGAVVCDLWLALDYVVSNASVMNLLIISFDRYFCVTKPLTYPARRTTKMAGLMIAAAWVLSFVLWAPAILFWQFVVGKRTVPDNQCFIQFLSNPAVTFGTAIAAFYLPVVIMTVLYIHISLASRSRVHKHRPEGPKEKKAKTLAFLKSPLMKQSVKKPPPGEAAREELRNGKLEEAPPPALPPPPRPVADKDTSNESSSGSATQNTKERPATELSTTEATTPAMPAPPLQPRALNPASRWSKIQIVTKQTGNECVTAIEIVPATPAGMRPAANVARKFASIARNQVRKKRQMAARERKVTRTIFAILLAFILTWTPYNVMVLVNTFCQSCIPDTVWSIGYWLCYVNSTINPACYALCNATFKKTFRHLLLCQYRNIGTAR

[25] = target: Muscarinic acetylcholine receptor M2 (Rattus norvegicus) (UniProt P10980); assay: Antagonist activity at rat muscarinic M2 receptor assessed as acetylcholine-induced response by calcium mobilization assay; format: functional; set-up: scale not given: the % may be the effect or the level left
Chain of Muscarinic acetylcholine receptor M2 (Rattus norvegicus) (P10980 whole entry): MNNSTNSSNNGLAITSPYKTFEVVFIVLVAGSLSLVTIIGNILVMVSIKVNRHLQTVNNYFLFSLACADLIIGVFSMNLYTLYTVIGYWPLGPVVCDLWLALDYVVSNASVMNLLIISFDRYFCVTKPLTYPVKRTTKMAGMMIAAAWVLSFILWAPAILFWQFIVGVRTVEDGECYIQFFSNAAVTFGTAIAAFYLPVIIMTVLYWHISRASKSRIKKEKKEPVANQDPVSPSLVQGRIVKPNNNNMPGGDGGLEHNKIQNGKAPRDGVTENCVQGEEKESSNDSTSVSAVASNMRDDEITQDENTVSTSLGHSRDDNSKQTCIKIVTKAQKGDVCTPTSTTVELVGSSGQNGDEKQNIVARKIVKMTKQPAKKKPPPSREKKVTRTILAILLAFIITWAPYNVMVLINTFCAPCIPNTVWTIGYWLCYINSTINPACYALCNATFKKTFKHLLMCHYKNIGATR

Plasma [26] = assay: Protein binding in human plasma; format: ADME, cell-free
Liver [27] = assay: Drug metabolism in human liver microsomes assessed as metabolite F formation in presence of NADPH by UV and mass spectrometry; format: ADME, microsome
Liver [28] = assay: Drug metabolism in human liver microsomes assessed as metabolite A formation in presence of NADPH by UV and mass spectrometry; format: ADME, microsome
Liver [29] = assay: Drug metabolism in rat liver microsomes assessed as metabolite F formation in presence of NADPH by UV and mass spectrometry; format: ADME, microsome
Liver [30] = assay: Drug metabolism in human liver microsomes assessed as metabolite G formation in presence of NADPH by UV and mass spectrometry; format: ADME, microsome
Liver [31] = assay: Drug metabolism in human liver microsomes assessed as metabolite B formation in presence of NADPH by UV and mass spectrometry; format: ADME, microsome
[32] = target: T3, Muscarinic acetylcholine receptor M4 (Homo sapiens, UniProt P08173); assay: Antagonist activity at human recombinant muscarinic M4 receptor expressed in CHO cells co-transfected with Gqi5 in presence of EC80 acetylcholine by calcium mobilization assay; format: functional, cell-based
T3 sequence (P08173 whole entry): T2 sequence (whole entry)

[33] = target: T1, Muscarinic acetylcholine receptor M3; assay: Antagonist activity at human recombinant muscarinic M3 receptor expressed in CHO cells assessed as acetylcholine-induced response in presence of EC80 acetylcholine by calcium mobilization assay relative to untreated control; set-up: scale not given: the % may be the effect or the level left
[34] = target: Muscarinic acetylcholine receptor M1 (Homo sapiens) (UniProt P11229); assay: Antagonist activity at human recombinant muscarinic M1 receptor expressed in CHO cells co-transfected with Gqi5 assessed as acetylcholine-induced response in presence of EC80 acetylcholine by calcium mobilization assay relative to untreated control; format: functional, cell-based; set-up: scale not given: the % may be the effect or the level left
Chain of Muscarinic acetylcholine receptor M1 (Homo sapiens) (P11229 whole entry): as the sequence (P08482 whole entry) above, with V5A, S254T, S309P, K320R, G337A, V413I counted along it

[35] = target: Muscarinic acetylcholine receptor M1 (Homo sapiens, UniProt P11229); assay: Antagonist activity at human recombinant muscarinic M1 receptor expressed in CHO cells co-transfected with Gqi5 in presence of EC80 acetylcholine by calcium mobilization assay; format: functional, cell-based
Chain of Muscarinic acetylcholine receptor M1 (Homo sapiens, UniProt P11229) (P11229 whole entry): as the sequence (P08482 whole entry) above, with V5A, S254T, S309P, K320R, G337A, V413I counted along it

[36] = target: Muscarinic acetylcholine receptor M5 (Homo sapiens) (UniProt P08912); assay: Antagonist activity at human recombinant muscarinic M5 receptor expressed in CHO cells co-transfected with Gqi5 assessed as acetylcholine-induced response in presence of EC80 acetylcholine by calcium mobilization assay relative to untreated control; format: functional, cell-based; set-up: scale not given: the % may be the effect or the level left
Liver [37] = assay: Drug metabolism in human liver microsomes assessed as metabolite D formation in presence of NADPH by UV and mass spectrometry; format: ADME, microsome
[38] = target: Muscarinic acetylcholine receptor M4 (Rattus norvegicus) (UniProt P08485); assay: as §1; format: functional
[39] = target: Muscarinic acetylcholine receptor M1 (Rattus norvegicus) (UniProt P08482); assay: as §2; format: functional
[40] = Brain to plasma permeability coefficient in rat dosed as cassette dosing; format: ADME, organism-based
[41] = target: Muscarinic acetylcholine receptor M2 (Rattus norvegicus) (UniProt P10980); assay: as §3; format: functional
Plasma [42] = assay: Protein binding in rat plasma assessed as unbound fraction; format: ADME, cell-free
[43] = target: Muscarinic acetylcholine receptor M3 (Rattus norvegicus) (UniProt P08483); assay: as §4; format: functional
Brain = assay: Protein binding in rat brain homogenate assessed as unbound fraction; format: ADME, tissue-based
Plasma [44] = assay: Protein binding in human plasma assessed as unbound fraction; format: ADME, cell-free
[45] = target: T3, Muscarinic acetylcholine receptor M4; assay: Displacement of [3H]NMS from human recombinant muscarinic M4 receptor expressed in CHO cell membranes
[46] = Unbound brain-to-plasma concentration ratio in rat dosed as cassette dosing; format: ADME, organism-based

Activity [1]: 2.9% | IC50 [2]: 6500 nM | IC50 [3]: 1000 nM | IC50 [4]: 1400 nM | Activity [5]: 2.6% | Ratio IC50 [6]: 2.7 to 16 | IC50 [7]: 5900 nM | Activity [8]: 40% | IC50 [9]: > 10000 nM | IC50 [10]: > 10000 nM | IC50 [11]: 7000 nM | Drug metabolism (Liver [12]): Metabolite_Detected | Ratio IC50 (Homo sapiens [13]): 2.7 to 16 | Activity [14]: 37% | Drug metabolism (Liver [15]): Metabolite_Notdetected | Activity [16]: 4.8% | Drug metabolism (Liver [17]): Metabolite_Detected | Drug metabolism (Liver [18]): Metabolite_Notdetected | Drug metabolism (Liver [19]): Metabolite_Detected | PPB (Plasma [20]): Active | IC50 [21]: 1200 nM | Ratio IC50 (Homo sapiens [22]): 2.7 to 16 | Ratio IC50 (Homo sapiens [23]): 2.7 to 16 | Activity [24]: 4% | Activity [25]: 7.1% | PPB (Plasma [26]): Active | Drug metabolism (Liver [27]): Metabolite_Detected | Drug metabolism (Liver [28]): Metabolite_Detected | Drug metabolism (Liver [29]): Metabolite_Detected | Drug metabolism (Liver [30]): Metabolite_Detected | Drug metabolism (Liver [31]): Metabolite_Detected | IC50 ([32]; read-out: IC50): 440 nM | IC50 ([32]; read-out: pIC50 (converted)): 427 nM | Activity [33]: 4.3% | Activity [34]: 2.8% | IC50 [35]: 1300 nM | Activity [36]: 3.1% | Drug metabolism (Liver [37]): Metabolite_Detected
Compound: C[C@H]1CCCCN1c1ccc(N2CCN(S(=O)(=O)c3ccccc3Cl)CC2)nn1

Activity [1]: 17% | IC50 [2]: 1030 nM | inhibition [38]: Active | inhibition [39]: Active | Kp [40]: 2.1 | inhibition [41]: Active | Fu (Plasma [42]): 0.07 | inhibition [43]: Active | IC50 [11]: 782 nM | Fu (Brain): 0.04 | inhibition [14]: Active | Fu (Plasma [44]): 0.08 | IC50 [21]: 352 nM | Activity [24]: 12% | Ki [45]: 7.78 nM | IC50 ([32]; read-out: IC50): 120 nM | IC50 ([32]; read-out: pIC50 (converted)): 110 nM | Activity [33]: 55% | Activity [34]: 11% | IC50 [35]: 288 nM | Activity [36]: 43% | K(p,uu,brain) [46]: 1.1
Compound: Cc1noc(C)c1S(=O)(=O)N1CCN(c2ccc(N3CCCC(C)(C)C3)nn2)CC1
